Assay results taken from ChEMBL document CHEMBL3608247, “Human SIRT3 tripeptidic inhibitors containing N(ε)-thioacetyl-lysine” (Bioorg Med Chem Lett, 2015).

What was measured:
[1] = biological target: T1, NAD-dependent protein deacetylase sirtuin-1 (Homo sapiens, UniProt Q96EB6); test: Inhibition of human His6 or GST-tagged SIRT1 after 10 mins by HPLC analysis in presence of beta-NAD
T1 sequence (Q96EB6 whole entry): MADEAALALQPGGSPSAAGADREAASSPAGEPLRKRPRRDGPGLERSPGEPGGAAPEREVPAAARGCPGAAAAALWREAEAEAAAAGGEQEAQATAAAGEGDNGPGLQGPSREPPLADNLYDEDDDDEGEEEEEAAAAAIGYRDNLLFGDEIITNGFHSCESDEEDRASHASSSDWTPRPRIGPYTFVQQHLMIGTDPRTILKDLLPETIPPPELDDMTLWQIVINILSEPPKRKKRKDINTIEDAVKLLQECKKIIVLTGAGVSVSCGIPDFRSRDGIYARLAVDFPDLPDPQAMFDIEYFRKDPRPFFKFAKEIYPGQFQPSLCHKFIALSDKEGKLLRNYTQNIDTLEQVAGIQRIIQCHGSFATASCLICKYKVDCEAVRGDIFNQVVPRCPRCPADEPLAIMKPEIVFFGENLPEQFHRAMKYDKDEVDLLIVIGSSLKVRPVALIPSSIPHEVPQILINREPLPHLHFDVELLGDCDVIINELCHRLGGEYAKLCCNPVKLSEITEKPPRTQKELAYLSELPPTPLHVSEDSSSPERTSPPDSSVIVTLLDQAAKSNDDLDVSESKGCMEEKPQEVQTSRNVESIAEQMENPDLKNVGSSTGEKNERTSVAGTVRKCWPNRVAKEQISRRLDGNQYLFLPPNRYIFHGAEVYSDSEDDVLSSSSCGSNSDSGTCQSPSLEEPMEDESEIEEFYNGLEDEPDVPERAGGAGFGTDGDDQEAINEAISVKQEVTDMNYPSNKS

[2] = biological target: T2, NAD-dependent protein deacetylase sirtuin-3, mitochondrial (Homo sapiens, UniProt Q9NTG7); test: Inhibition of human His6-tagged SIRT3 after 10 mins by HPLC analysis in presence of beta-NAD
T2 sequence (Q9NTG7 whole entry): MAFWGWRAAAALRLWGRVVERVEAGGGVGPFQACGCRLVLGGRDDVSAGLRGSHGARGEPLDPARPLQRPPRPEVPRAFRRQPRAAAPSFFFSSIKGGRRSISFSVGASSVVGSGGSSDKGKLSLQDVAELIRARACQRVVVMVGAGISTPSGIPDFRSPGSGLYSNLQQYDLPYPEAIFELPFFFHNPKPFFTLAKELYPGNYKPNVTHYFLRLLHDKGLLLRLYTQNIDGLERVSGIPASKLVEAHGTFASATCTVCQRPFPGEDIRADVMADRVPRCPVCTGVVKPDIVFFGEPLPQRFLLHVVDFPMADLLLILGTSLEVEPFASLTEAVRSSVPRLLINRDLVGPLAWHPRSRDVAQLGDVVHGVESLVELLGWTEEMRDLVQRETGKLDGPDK

[3] = biological target: T3, NAD-dependent protein deacetylase sirtuin-2 (Homo sapiens, UniProt Q8IXJ6); test: Inhibition of human His6-tagged SIRT2 after 12 mins by HPLC analysis in presence of beta-NAD
T3 sequence (Q8IXJ6 whole entry): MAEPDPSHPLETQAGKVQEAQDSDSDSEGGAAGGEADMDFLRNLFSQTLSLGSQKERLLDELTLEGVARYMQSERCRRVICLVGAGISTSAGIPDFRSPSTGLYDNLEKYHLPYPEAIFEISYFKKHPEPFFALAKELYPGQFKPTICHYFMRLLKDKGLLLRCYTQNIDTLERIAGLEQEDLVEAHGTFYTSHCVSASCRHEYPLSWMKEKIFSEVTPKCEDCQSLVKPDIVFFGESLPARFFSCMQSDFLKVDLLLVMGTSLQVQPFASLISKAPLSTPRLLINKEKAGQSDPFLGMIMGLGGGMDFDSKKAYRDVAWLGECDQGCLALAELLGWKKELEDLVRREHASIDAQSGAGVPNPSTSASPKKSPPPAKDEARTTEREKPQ

[4] = biological target: T2, NAD-dependent protein deacetylase sirtuin-3, mitochondrial; test: Inhibition of human His6-tagged SIRT3 after 10 mins by Dixon plot analysis in presence of beta-NAD
[5] = biological target: T1, NAD-dependent protein deacetylase sirtuin-1; test: Inhibition of human His6 or GST-tagged SIRT1 after 10 mins by Dixon plot analysis in presence of beta-NAD
[6] = biological target: T3, NAD-dependent protein deacetylase sirtuin-2; test: Inhibition of human His6-tagged SIRT2 after 12 mins by Dixon plot analysis in presence of beta-NAD
[7] = biological target: NAD-dependent protein deacylase sirtuin-6 (Homo sapiens, UniProt Q8N6T7); test: Inhibition of human GST-tagged SIRT6 after 12 mins by HPLC analysis in presence of beta-NAD
Chain of NAD-dependent protein deacylase sirtuin-6 (Q8N6T7 whole entry): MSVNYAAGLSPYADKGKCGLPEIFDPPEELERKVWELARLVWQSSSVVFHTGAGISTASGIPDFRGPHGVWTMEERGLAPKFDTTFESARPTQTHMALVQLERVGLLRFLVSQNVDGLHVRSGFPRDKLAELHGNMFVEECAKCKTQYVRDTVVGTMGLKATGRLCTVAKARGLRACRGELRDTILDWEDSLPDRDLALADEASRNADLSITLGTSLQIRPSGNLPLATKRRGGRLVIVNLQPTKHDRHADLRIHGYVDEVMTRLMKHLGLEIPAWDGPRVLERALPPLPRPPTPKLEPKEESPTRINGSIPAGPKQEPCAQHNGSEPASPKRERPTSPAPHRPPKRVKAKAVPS

Homo sapiens [8] = species on record: Homo sapiens; test: Selectivity ratio of IC50 for human His6-tagged SIRT2 to IC50 for human His6-tagged SIRT3
[9] = biological target: NAD-dependent protein deacylase sirtuin-5, mitochondrial (Homo sapiens, UniProt Q9NXA8); test: Inhibition of human GST-tagged SIRT5 after 5 mins by HPLC analysis in presence of beta-NAD
Chain of NAD-dependent protein deacylase sirtuin-5, mitochondrial (Q9NXA8 whole entry): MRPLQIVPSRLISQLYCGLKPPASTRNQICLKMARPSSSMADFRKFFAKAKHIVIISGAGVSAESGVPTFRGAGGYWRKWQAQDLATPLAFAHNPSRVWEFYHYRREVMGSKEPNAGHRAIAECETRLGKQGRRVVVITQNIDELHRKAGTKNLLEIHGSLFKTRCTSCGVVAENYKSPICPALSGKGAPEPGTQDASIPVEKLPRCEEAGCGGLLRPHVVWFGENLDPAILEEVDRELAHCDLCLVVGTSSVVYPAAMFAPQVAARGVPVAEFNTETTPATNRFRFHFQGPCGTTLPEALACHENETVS

Homo sapiens [10] = species on record: Homo sapiens; test: Selectivity ratio of IC50 for human His6 or GST-tagged SIRT1 to IC50 for human His6-tagged SIRT3

| Structure (SMILES) | IC50 [1] | IC50 [2] | IC50 [3] | also measured |
| --- | --- | --- | --- | --- |
| CCC[C@H](NC(C)=O)C(=O)N[C@@H](CCCCNC(C)=S)C(=O)N[C@@H](CCCCNC(C)=O)C(N)=O | 10700 nM | 2100 nM | 7.71 µM | – |
| CC(=O)NCCCC[C@H](NC(C)=O)C(=O)N[C@@H](CCCCNC(C)=S)C(=O)N[C@@H](CNC(C)=O)C(N)=O | 2320 nM | 360 nM | 1.51 µM | – |
| CC(=O)NCCCC[C@H](NC(=O)[C@H](CCCCNC(C)=S)NC(=O)[C@H](Cc1ccc2ccccc2c1)NC(C)=O)C(N)=O | – | – | – | IC50 [4]: 1290 nM; IC50 [5]: 12.6 µM; IC50 [6]: 12 µM |
| CC(=O)NC[C@H](NC(=O)[C@H](CCCCNC(C)=S)NC(=O)[C@H](Cc1ccc2ccccc2c1)NC(C)=O)C(N)=O | – | – | – | IC50 [7]: 307 µM; IC50 [4]: 1910 nM; IC50 [5]: 18.9 µM; Ratio IC50 (Homo sapiens [8]): 9.3; IC50 [9]: 2 mM; IC50 [6]: 17.8 µM; Ratio IC50 (Homo sapiens [10]): 9.9 |
| CC[C@H](NC(C)=O)C(=O)N[C@@H](CCCCNC(C)=S)C(=O)N[C@@H](CCCCNC(C)=O)C(N)=O | 2130 nM | – | 1.34 µM | – |
| CC(=O)NCCCC[C@H](NC(=O)[C@H](CCCCNC(C)=S)NC(=O)[C@H](CNC(C)=O)NC(C)=O)C(N)=O | 6860 nM | 1000 nM | 7.76 µM | – |
| CC(=O)NC[C@H](NC(=O)[C@H](CCCCNC(C)=S)NC(=O)[C@H](CNC(C)=O)NC(C)=O)C(N)=O | 6600 nM | 1800 nM | 11.9 µM | Ratio IC50 (Homo sapiens [8]): 6.6; Ratio IC50 (Homo sapiens [10]): 3.7 |
| CCCC[C@H](NC(=O)[C@H](CCCCNC(C)=S)NC(=O)[C@H](CCCCNC(C)=O)NC(C)=O)C(N)=O | 630 nM | – | 5.1 µM | – |
| CC[C@H](NC(=O)[C@H](CCCCNC(C)=S)NC(=O)[C@H](CCCCNC(C)=O)NC(C)=O)C(N)=O | 1960 nM | 1100 nM | 1.41 µM | – |
| CC(=O)NCCCC[C@H](NC(=O)[C@H](CCCCNC(C)=S)NC(=O)[C@H](Cc1csc2ccccc12)NC(C)=O)C(N)=O | – | – | – | IC50 [4]: 1440 nM; IC50 [5]: 14.4 µM; IC50 [6]: 14.5 µM |
| CCCC[C@H](NC(C)=O)C(=O)N[C@@H](CCCCNC(C)=S)C(=O)N[C@@H](CCCCNC(C)=O)C(N)=O | 2780 nM | – | 0.81 µM | – |
| CCC[C@H](NC(=O)[C@H](CCCCNC(C)=S)NC(=O)[C@H](CCCCNC(C)=O)NC(C)=O)C(N)=O | 2850 nM | – | 1.38 µM | – |

Further lines, with some results ahead:

| IC50 [1] | IC50 [2] | IC50 [3] | Structure (SMILES) | also measured |
| --- | --- | --- | --- | --- |
| 3650 nM | – | 5.52 µM | CC(=O)NCCCC[C@H](NC(=O)[C@H](CCCCNC(C)=S)NC(=O)[C@H](CCc1ccccc1)NC(C)=O)C(N)=O | – |
| 640 nM | 2100 nM | 2.26 µM | CC(=O)NCCCC[C@H](NC(C)=O)C(=O)N[C@@H](CCCCNC(C)=S)C(=O)N[C@@H](Cc1ccc2ccccc2c1)C(N)=O | – |
| 1150 nM | 1400 nM | 2.38 µM | CC(=O)NCCCC[C@H](NC(C)=O)C(=O)N[C@@H](CCCCNC(C)=S)C(=O)N[C@@H](Cc1csc2ccccc12)C(N)=O | – |
| 9600 nM | 1750 nM | 8.75 µM | CC(=O)NC[C@H](NC(=O)[C@H](CCCCNC(C)=S)NC(=O)[C@H](Cc1csc2ccccc12)NC(C)=O)C(N)=O | Ratio IC50 (Homo sapiens [8]): 5; Ratio IC50 (Homo sapiens [10]): 5.5 |
| 2400 nM | 3200 nM | 3.92 µM | CC(=O)NCCCC[C@H](NC(C)=O)C(=O)N[C@@H](CCCCNC(C)=S)C(=O)N[C@@H](Cc1ccc(-c2ccccc2)cc1)C(N)=O | – |
| 6600 nM | 1620 nM | 8.32 µM | CC(=O)NC[C@H](NC(=O)[C@H](CCCCNC(C)=S)NC(=O)[C@H](Cc1ccc(-c2ccccc2)cc1)NC(C)=O)C(N)=O | Ratio IC50 (Homo sapiens [8]): 5.1; Ratio IC50 (Homo sapiens [10]): 4.1 |
| 3030 nM | – | 4.5 µM | CC(=O)NCCCC[C@H](NC(=O)[C@H](CCCCNC(C)=S)NC(=O)[C@H](Cc1ccc(-c2ccccc2)cc1)NC(C)=O)C(N)=O | – |
| 1450 nM | – | 0.65 µM | CC(=O)NCCCC[C@H](NC(C)=O)C(=O)N[C@@H](CCCCNC(C)=S)C(=O)N[C@@H](CCc1ccccc1)C(N)=O | – |
